Test results published in patent US20060252807A1, “Novel ortho-terphenyl inhibitors of p38 kinase and methods of treating inflammatory disorders” (Kalypsys, Inc., priority 2005, published 2006).

Biological target: T1, active p38 alpha enzyme (Upstate Biotechnology) (Homo sapiens, UniProt Q16539)
T1 construct: purchased Upstate Biotechnology
Assay: p38α biochemical assay (ATP turnover, luminescent detection, Cambrex PKlight)
Settings: p38α kinase; Table 1 Biological Activity
Summary of the method: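 Compounds in DMSO are added to active p38 alpha with MapkapK2 whole protein and ATP at 1.4 uM final. Reactions then run for 2 hours at 30C. A luminescent reagent is added last to quantify total ATP consumed.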

T1 sequence (Q16539 whole entry): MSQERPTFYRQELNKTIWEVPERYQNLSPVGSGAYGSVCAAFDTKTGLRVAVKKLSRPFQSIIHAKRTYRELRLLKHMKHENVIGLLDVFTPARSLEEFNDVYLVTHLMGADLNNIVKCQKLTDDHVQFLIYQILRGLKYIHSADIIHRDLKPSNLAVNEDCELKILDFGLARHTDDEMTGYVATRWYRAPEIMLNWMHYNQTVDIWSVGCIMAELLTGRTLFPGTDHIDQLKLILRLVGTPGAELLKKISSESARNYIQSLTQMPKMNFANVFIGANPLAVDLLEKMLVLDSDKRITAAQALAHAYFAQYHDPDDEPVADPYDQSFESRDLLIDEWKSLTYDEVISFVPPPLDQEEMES

SMILES | IC50 [µM]
CC(=O)c1cccc(C(=O)N2CCC(c3[nH]nc(-c4ccc(F)cc4)c3-c3nc(C(=O)NC(C)C)cs3)CC2)c1 [Example 883] | > 1
CC(=O)c1ccccc1C(=O)N1CCC(c2[nH]nc(-c3ccc(F)cc3)c2-c2nc(C(=O)NC(C)C)cs2)CC1 [Example 884] | > 1
CC(C)NC(=O)c1csc(-c2c(-c3ccc(F)cc3)n[nH]c2C2CCN(C(=O)c3ccc(C(C)C)cc3)CC2)n1 [Example 885] | > 1
Cc1ccccc1CCC(=O)N1CCC(c2[nH]nc(-c3ccc(F)cc3)c2-c2nc(C(=O)NC(C)C)cs2)CC1 [Example 886] | > 1
Cc1cccc(CCC(=O)N2CCC(c3[nH]nc(-c4ccc(F)cc4)c3-c3nc(C(=O)NC(C)C)cs3)CC2)c1 [Example 887] | > 1
CCC(C(=O)N1CCC(c2[nH]nc(-c3ccc(F)cc3)c2-c2nc(C(=O)NC(C)C)cs2)CC1)c1ccccc1 (stereo not drawn) [Example 888] | > 1
CCCc1ccc(C(=O)N2CCC(c3[nH]nc(-c4ccc(F)cc4)c3-c3nc(C(=O)NC(C)C)cs3)CC2)cc1 [Example 890] | > 1
CC(C)NC(=O)c1csc(-c2c(-c3ccc(F)cc3)n[nH]c2C2CCN(C(=O)c3ccc4c(c3)OCO4)CC2)n1 [Example 891] | > 1
CC(C)NC(=O)c1csc(-c2c(-c3ccc(F)cc3)n[nH]c2C2CCCN(C(=O)/C=C/c3ccccc3F)CC2)n1 (stereo not drawn) [Example 892] | > 1
CCOc1ccccc1C(=O)N1CCC(c2[nH]nc(-c3ccc(F)cc3)c2-c2nc(C(=O)NC(C)C)cs2)CC1 [Example 893] | > 1
Cc1ccccc1OCC(=O)N1CCC(c2[nH]nc(-c3ccc(F)cc3)c2-c2nc(C(=O)NC(C)C)cs2)CC1 [Example 894] | > 1
CC(C)NC(=O)c1csc(-c2c(-c3ccc(F)cc3)n[nH]c2C2CCN(C(=O)CCc3ccccc3O)CC2)n1 [Example 895] | > 1
COc1ccccc1CC(=O)N1CCC(c2[nH]nc(-c3ccc(F)cc3)c2-c2nc(C(=O)NC(C)C)cs2)CC1 [Example 896] | > 1
CC(C)NC(=O)c1csc(-c2c(-c3ccc(F)cc3)n[nH]c2C2CCN(C(=O)C(C)c3ccc(O)cc3)CC2)n1 (stereo not drawn) [Example 897] | > 1
CC(C)NC(=O)c1csc(-c2c(-c3ccc(F)cc3)n[nH]c2C2CCN(C(=O)c3ccccc3[N+](=O)[O-])CC2)n1 [Example 898] | > 1
CC(C)NC(=O)c1csc(-c2c(-c3ccc(F)cc3)n[nH]c2C2CCN(C(=O)c3cccc([N+](=O)[O-])c3)CC2)n1 [Example 899] | > 1
COc1cccc(O)c1C(=O)N1CCC(c2[nH]nc(-c3ccc(F)cc3)c2-c2nc(C(=O)NC(C)C)cs2)CC1 [Example 900] | > 1
COc1ccc(O)c(C(=O)N2CCC(c3[nH]nc(-c4ccc(F)cc4)c3-c3nc(C(=O)NC(C)C)cs3)CC2)c1 [Example 901] | > 1
COc1ccc(C(=O)N2CCC(c3[nH]nc(-c4ccc(F)cc4)c3-c3nc(C(=O)NC(C)C)cs3)CC2)c(O)c1 [Example 902] | > 1
COc1ccc(C(=O)N2CCC(c3[nH]nc(-c4ccc(F)cc4)c3-c3nc(C(=O)NC(C)C)cs3)CC2)cc1O [Example 903] | > 1
CC(C)NC(=O)c1csc(-c2c(-c3ccc(F)cc3)n[nH]c2C2CCN(C(=O)c3cc(O)c(O)c(O)c3)CC2)n1 [Example 904] | ≤ 1

SMILES | IC50 [µM]
CC(C)NC(=O)c1csc(-c2c(-c3ccc(F)cc3)n[nH]c2C2CCN(C(=O)Cc3ccc(O)c(F)c3)CC2)n1 [Example 905] | > 1
Cc1cc(C(=O)N2CCC(c3[nH]nc(-c4ccc(F)cc4)c3-c3nc(C(=O)NC(C)C)cs3)CC2)cc(Cl)n1 [Example 906] | > 1
CC(C)NC(=O)c1csc(-c2c(-c3ccc(F)cc3)n[nH]c2C2CCN(C(=O)Cc3c(F)cccc3F)CC2)n1 [Example 907] | > 1
CC(C)NC(=O)c1csc(-c2c(-c3ccc(F)cc3)n[nH]c2C2CCN(C(=O)c3cccc4ccccc34)CC2)n1 [Example 908] | ≤ 1
CC(C)NC(=O)c1csc(-c2c(-c3ccc(F)cc3)n[nH]c2C2CCN(C(=O)c3ccc(Cl)cc3O)CC2)n1 [Example 909] | > 1
CC(C)NC(=O)c1csc(-c2c(-c3ccc(F)cc3)n[nH]c2C2CCN(C(=O)c3cc(Cl)ccc3O)CC2)n1 [Example 910] | > 1
CC(C)NC(=O)c1csc(-c2c(-c3ccc(F)cc3)n[nH]c2C2CCN(C(=O)c3ccc4ncccc4c3)CC2)n1 [Example 911] | > 1
CC(C)NC(=O)c1csc(-c2c(-c3ccc(F)cc3)n[nH]c2C2CCN(C(=O)c3cnc(O)c(Cl)c3)CC2)n1 [Example 912] | > 1
CC(C)NC(=O)c1csc(-c2c(-c3ccc(F)cc3)n[nH]c2C2CCN(C(=O)c3ccc(F)cc3Cl)CC2)n1 [Example 913] | > 1
CC(C)NC(=O)c1csc(-c2c(-c3ccc(F)cc3)n[nH]c2C2CCN(C(=O)c3c(F)cccc3Cl)CC2)n1 [Example 914] | > 1
CC(C)NC(=O)c1csc(-c2c(-c3ccc(F)cc3)n[nH]c2C2CCN(C(=O)CNC(=O)OC(C)(C)C)CC2)n1 [Example 915] | > 1
Cc1c(C(=O)N2CCC(c3[nH]nc(-c4ccc(F)cc4)c3-c3nc(C(=O)NC(C)C)cs3)CC2)oc2ccccc12 [Example 916] | ≤ 1
CC(C)NC(=O)c1csc(-c2c(-c3ccc(F)cc3)n[nH]c2C2CCN(C(=O)CC3Cc4ccccc4C3)CC2)n1 [Example 917] | > 1
CC(C)NC(=O)c1csc(-c2c(-c3ccc(F)cc3)n[nH]c2C2CCN(C(=O)C3CCc4ccccc4C3)CC2)n1 (stereo not drawn) [Example 918] | > 1
COc1ccccc1/C=C/C(=O)N1CCC(c2[nH]nc(-c3ccc(F)cc3)c2-c2nc(C(=O)NC(C)C)cs2)CC1 [Example 919] | > 1
CC(C)NC(=O)c1csc(-c2c(-c3ccc(F)cc3)n[nH]c2C2CCN(C(=O)c3csc4ccccc34)CC2)n1 [Example 920] | > 1
CC(C)NC(=O)c1csc(-c2c(-c3ccc(F)cc3)n[nH]c2C2CCN(C(=O)c3cc4ccccc4s3)CC2)n1 [Example 921] | > 1
CCCCc1ccc(C(=O)N2CCC(c3[nH]nc(-c4ccc(F)cc4)c3-c3nc(C(=O)NC(C)C)cs3)CC2)cc1 [Example 922] | > 1
CC(C)NC(=O)c1csc(-c2c(-c3ccc(F)cc3)n[nH]c2C2CCN(C(=O)c3ccc(C(C)(C)C)cc3)CC2)n1 [Example 923] | ≤ 1
CC(C)NC(=O)c1csc(-c2c(-c3ccc(F)cc3)n[nH]c2C2CCN(C(=O)c3ccc(N(C)C=O)cc3)CC2)n1 [Example 924] | > 1
CC(=O)Nc1cccc(C(=O)N2CCC(c3[nH]nc(-c4ccc(F)cc4)c3-c3nc(C(=O)NC(C)C)cs3)CC2)c1 [Example 925] | ≤ 1

SMILES | IC50 [µM]
CC(C)NC(=O)c1csc(-c2c(-c3ccc(F)cc3)n[nH]c2C2CCN(C(=O)COc3ccccc3C=O)CC2)n1 [Example 926] | > 1
CC(=O)Oc1ccc(C(=O)N2CCC(c3[nH]nc(-c4ccc(F)cc4)c3-c3nc(C(=O)NC(C)C)cs3)CC2)cc1 [Example 927] | > 1
COC(=O)c1ccc(C(=O)N2CCC(c3[nH]nc(-c4ccc(F)cc4)c3-c3nc(C(=O)NC(C)C)cs3)CC2)cc1 [Example 928] | > 1
CC(=O)Oc1cccc(C(=O)N2CCC(c3[nH]nc(-c4ccc(F)cc4)c3-c3nc(C(=O)NC(C)C)cs3)CC2)c1 [Example 929] | > 1
CC(=O)Oc1ccccc1C(=O)N1CCC(c2[nH]nc(-c3ccc(F)cc3)c2-c2nc(C(=O)NC(C)C)cs2)CC1 [Example 930] | > 1
CC(C)NC(=O)c1csc(-c2c(-c3ccc(F)cc3)n[nH]c2C2CCN(C(=O)Cc3ccc4c(c3)OCO4)CC2)n1 [Example 931] | > 1
CCCOc1ccc(C(=O)N2CCC(c3[nH]nc(-c4ccc(F)cc4)c3-c3nc(C(=O)NC(C)C)cs3)CC2)cc1 [Example 932] | > 1
CC(C)NC(=O)c1csc(-c2c(-c3ccc(F)cc3)n[nH]c2C2CCN(C(=O)c3ccc(OC(C)C)cc3)CC2)n1 [Example 933] | > 1
Cc1cccc(C(=O)N2CCC(c3[nH]nc(-c4ccc(F)cc4)c3-c3nc(C(=O)NC(C)C)cs3)CC2)c1[N+](=O)[O-] [Example 935] | > 1
Cc1ccc([N+](=O)[O-])c(C(=O)N2CCC(c3[nH]nc(-c4ccc(F)cc4)c3-c3nc(C(=O)NC(C)C)cs3)CC2)c1 [Example 936] | > 1
COc1ccc(OC)c(C(=O)N2CCC(c3[nH]nc(-c4ccc(F)cc4)c3-c3nc(C(=O)NC(C)C)cs3)CC2)c1 [Example 938] | > 1
COc1ccc(C(=O)N2CCC(c3[nH]nc(-c4ccc(F)cc4)c3-c3nc(C(=O)NC(C)C)cs3)CC2)c(OC)c1 [Example 939] | > 1
COc1cccc(OC)c1C(=O)N1CCC(c2[nH]nc(-c3ccc(F)cc3)c2-c2nc(C(=O)NC(C)C)cs2)CC1 [Example 940] | > 1
COc1cc(OC)cc(C(=O)N2CCC(c3[nH]nc(-c4ccc(F)cc4)c3-c3nc(C(=O)NC(C)C)cs3)CC2)c1 [Example 941] | > 1
COc1cccc(C(=O)N2CCC(c3[nH]nc(-c4ccc(F)cc4)c3-c3nc(C(=O)NC(C)C)cs3)CC2)c1OC [Example 942] | > 1
Cc1ccc(SCC(=O)N2CCC(c3[nH]nc(-c4ccc(F)cc4)c3-c3nc(C(=O)NC(C)C)cs3)CC2)cc1 [Example 943] | > 1
CC(C)NC(=O)c1csc(-c2c(-c3ccc(F)cc3)n[nH]c2C2CCN(C(=O)/C=C/c3ccc(Cl)cc3)CC2)n1 [Example 944] | > 1
CC(C)NC(=O)c1csc(-c2c(-c3ccc(F)cc3)n[nH]c2C2CCN(C(=O)/C=C/c3ccccc3Cl)CC2)n1 [Example 945] | > 1
CC(C)NC(=O)c1csc(-c2c(-c3ccc(F)cc3)n[nH]c2C2CCN(C(=O)c3ccc([N+](=O)[O-])c(O)c3)CC2)n1 [Example 946] | > 1
CC(C)NC(=O)c1csc(-c2c(-c3ccc(F)cc3)n[nH]c2C2CCN(C(=O)c3cc(O)ccc3[N+](=O)[O-])CC2)n1 [Example 947] | ≤ 1
CC(C)NC(=O)c1csc(-c2c(-c3ccc(F)cc3)n[nH]c2C2CCN(C(=O)c3cc([N+](=O)[O-])ccc3O)CC2)n1 [Example 948] | > 1
